Laboratory results: ChEMBL document CHEMBL1134885, “Synthesis and thrombolytic activity of pseudopeptides related to fibrinogen fragment” (2002)
Square brackets hold non-standard residues; d marks the D form. Peptide text beside a SMILES is read from it. Tpi = O=C(O)[C@@H]1Cc2c([nH]c3ccccc23)CN1

How the values were obtained:
Type in all cases: functional
Rattus norvegicus [1] = assay: The reduction of thrombolytic mass by the compound was calculated at a dose of 7.4 mg/Kg
Rattus norvegicus [2] = assay: The reduction of thrombolytic mass by the compound was calculated at a dose of 7.2 mg/Kg
Rattus norvegicus [3] = assay: The reduction of thrombolytic mass by the compound was calculated at a dose of 8 mg/kg
Rattus norvegicus [4] = assay: The reduction of thrombolytic mass by the compound was calculated at a dose of 5.4 mg/Kg
Rattus norvegicus [5] = assay: The reduction of thrombolytic mass by the compound was calculated at a dose of 5.3 mg/Kg
Rattus norvegicus [6] = assay: The reduction of thrombolytic mass by the compound was calculated at a dose of 6 mg/kg

C[C@H](NC(=O)[C@@H]1Cc2c([nH]c3ccccc23)CN1)C(=O)N[C@@H](CCCN=C(N)N)C(=O)N1CCC[C@H]1C(=O)N[C@@H](C)C(=O)N[C@@H](CCCCN)C(=O)O (H-[Tpi]ARPAK-OH)
Activity (Rattus norvegicus [1]): 16.13 mg

C[C@H](NC(=O)[C@@H]1CCCN1C(=O)[C@H](CCCN=C(N)N)NC(=O)CNC(=O)[C@@H]1Cc2c([nH]c3ccccc23)CN1)C(=O)N[C@@H](CCCCN)C(=O)O (H-[Tpi]GRPAK-OH)
Activity (Rattus norvegicus [2]): 19.7 mg

C[C@H](NC(=O)[C@@H]1CCCN1C(=O)[C@H](CCCN=C(N)N)NC(=O)[C@H](CCC(N)=O)NC(=O)[C@@H]1Cc2c([nH]c3ccccc23)CN1)C(=O)N[C@@H](CCCCN)C(=O)O (H-[Tpi]QRPAK-OH)
Activity (Rattus norvegicus [3]): 17.27 mg

H-ARPAK-OH
Activity (Rattus norvegicus [4]): 18.84 mg

H-GRPAK-OH
Activity (Rattus norvegicus [5]): 25.9 mg

H-QRPAK-OH
Activity (Rattus norvegicus [6]): 21.28 mg
